Laboratory results: ChEMBL document CHEMBL6096689, “Structure-Guided Development of ClpP Agonists with Potent Therapeutic Activities against Staphylococcus aureus Infection” (J Med Chem, 2025)
pEC50: −log10 of the molar value. Converted amounts (≈) assume the structure as drawn.

Legend:
[1] = molecular target: T1, ATP-dependent Clp protease proteolytic subunit (Staphylococcus aureus (strain NCTC 8325), UniProt Q2G036); assay: Agonist activity at Staphylococcus aureus ClpP extracted from Escherichia coli BL21 (DE3) cells using alpha-casein as substrate assessed as substrate hydrolysis preincubated for 15 mins followed by substrate addition and measured after 2 hrs by SDS-PAGE analysis
T1 sequence (Q2G036 whole entry): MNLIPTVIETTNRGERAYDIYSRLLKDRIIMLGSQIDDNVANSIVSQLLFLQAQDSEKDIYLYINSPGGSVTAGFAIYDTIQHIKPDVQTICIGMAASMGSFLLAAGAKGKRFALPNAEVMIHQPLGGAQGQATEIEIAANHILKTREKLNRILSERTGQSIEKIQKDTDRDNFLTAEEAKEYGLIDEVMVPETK

[2] = system: Staphylococcus aureus; assay: microbe, parasite or virus in culture; assay type: functional; details: Newman, time 18 hrs
Description: Antibacterial activity against Staphylococcus aureus Newman assessed as inhibition of visible growth of bacteria incubated for 18 hrs by absorbance based analysis

[3] = system: Staphylococcus aureus; assay: microbe, parasite or virus in culture; assay type: functional; details: time 18 hrs
Description: Antibacterial activity against multidrug-resistant Staphylococcus aureus clinical isolate XJ049 assessed as inhibition of visible growth of bacteria incubated for 18 hrs by absorbance based analysis

[4] = system: Staphylococcus aureus; assay: microbe, parasite or virus in culture; assay type: functional; details: NRS-271, time 18 hrs
Description: Antibacterial activity against methicillin-resistant Staphylococcus aureus NRS-271 assessed as inhibition of visible growth of bacteria incubated for 18 hrs by absorbance based analysis

[5] = system: Staphylococcus aureus; assay: microbe, parasite or virus in culture; assay type: functional; details: time 18 hrs; remark: listed apart in the source
Description: Antibacterial activity against multidrug-resistant Staphylococcus aureus clinical isolate XJ052 assessed as inhibition of visible growth of bacteria incubated for 18 hrs by absorbance based analysis

[6] = system: Staphylococcus aureus; assay: microbe, parasite or virus in culture; assay type: functional; details: NRS-1, time 18 hrs
Description: Antibacterial activity against methicillin-resistant Staphylococcus aureus NRS-1 assessed as inhibition of visible growth of bacteria incubated for 18 hrs by absorbance based analysis

[7] = system: Staphylococcus aureus; assay: microbe, parasite or virus in culture; assay type: functional; details: USA300, time 18 hrs
Description: Antibacterial activity against methicillin-resistant Staphylococcus aureus USA300 assessed as inhibition of visible growth of bacteria incubated for 18 hrs by absorbance based analysis

[8] = system: Staphylococcus aureus; assay: microbe, parasite or virus in culture; assay type: functional; details: NRS-108, time 18 hrs
Description: Antibacterial activity against methicillin-resistant Staphylococcus aureus NRS-108 assessed as inhibition of visible growth of bacteria incubated for 18 hrs by absorbance based analysis

[9] = system: Staphylococcus aureus; assay: microbe, parasite or virus in culture; assay type: functional; details: time 18 hrs; remark: listed apart in the source
Description: Antibacterial activity against multidrug-resistant Staphylococcus aureus clinical isolate XJ051 assessed as inhibition of visible growth of bacteria incubated for 18 hrs by absorbance based analysis

[10] = system: Staphylococcus aureus; assay: microbe, parasite or virus in culture; assay type: functional; details: time 18 hrs; remark: listed apart in the source
Description: Antibacterial activity against multidrug-resistant Staphylococcus aureus clinical isolate XJ025 assessed as inhibition of visible growth of bacteria incubated for 18 hrs by absorbance based analysis

[11] = system: Staphylococcus aureus; assay: microbe, parasite or virus in culture; assay type: functional; details: time 18 hrs; remark: listed apart in the source
Description: Antibacterial activity against multidrug-resistant Staphylococcus aureus clinical isolate XJ009 assessed as inhibition of visible growth of bacteria incubated for 18 hrs by absorbance based analysis

[12] = system: Staphylococcus aureus; assay: microbe, parasite or virus in culture; assay type: functional; details: NRS-70, time 18 hrs
Description: Antibacterial activity against methicillin-resistant Staphylococcus aureus NRS-70 assessed as inhibition of visible growth of bacteria incubated for 18 hrs by absorbance based analysis

Structure (SMILES) | pEC50 [1] | MIC [2] | further results
CC[C@H](C)[C@H]1C(=O)N(Cc2cccc3ccccc23)C[C@@H]2N(C(=O)NCCC3CC3)CCC(=O)N12 | 5.72 | 2 µg/mL (≈ 4.2 µM) | 
O=C1[C@H](CC2CCCC2)N2C(=O)CCN(C(=O)NCCCC(F)(F)F)[C@H]2CN1Cc1cccc2ccccc12 | 5.66 | 4 µg/mL (≈ 7.34 µM) | 
CC[C@H](C)[C@H]1C(=O)N(Cc2cccc3ccccc23)C[C@@H]2N(C(=O)NCCC(=O)OC)CCC(=O)N12 | 4.76 | 128 µg/mL (≈ 259 µM) | 
O=C1[C@H](Cc2ccccc2)N2C(=O)CCN(C(=O)NCc3ccccc3)[C@H]2CN1Cc1cccc2ccccc12 | 5.54 | 8 µg/mL (≈ 15 µM) | 
NC[C@H]1O[C@H](O[C@H]2[C@H](O)[C@@H](O[C@H]3O[C@H](CO)[C@@H](O)[C@H](N)[C@H]3O)[C@H](N)C[C@@H]2N)[C@H](O)[C@@H](O)[C@@H]1O [KANAMYCIN] |  | 4 µg/mL (≈ 8.26 µM) | MIC [3]: > 128 µg/mL; MIC [4]: 2 µg/mL (≈ 4.13 µM); MIC [5]: > 128 µg/mL; MIC [6]: > 128 µg/mL; MIC [7]: > 128 µg/mL; MIC [8]: 64 µg/mL (≈ 132 µM); MIC [9]: > 128 µg/mL; MIC [10]: > 128 µg/mL; MIC [11]: > 128 µg/mL; MIC [12]: 64 µg/mL (≈ 132 µM)
CC[C@H](C)[C@H]1C(=O)N(Cc2cccc3ccccc23)C[C@@H]2N(C(=O)NCc3ccccc3)CCC(=O)N12 | 6.05 | 4 µg/mL (≈ 8.02 µM) | 
O=C1[C@H](CC2CCC2)N2C(=O)CCN(C(=O)NCCCC(F)(F)F)[C@H]2CN1Cc1cccc2ccccc12 | 5.70 | 4 µg/mL (≈ 7.54 µM) | 
CSCC[C@H]1C(=O)N(Cc2cccc3ccccc23)C[C@@H]2N(C(=O)NCc3ccccc3)CCC(=O)N21 | 5.51 | 8 µg/mL (≈ 15.5 µM) | 
CC1(C)S[C@@H]2[C@H](NC(=O)[C@H](N)c3ccccc3)C(=O)N2[C@H]1C(=O)O [AMPICILLIN] |  | 0.25 µg/mL (≈ 0.715 µM) | MIC [3]: 64 µg/mL (≈ 183 µM); MIC [4]: 32 µg/mL (≈ 91.6 µM); MIC [5]: 64 µg/mL (≈ 183 µM); MIC [6]: 32 µg/mL (≈ 91.6 µM); MIC [8]: 4 µg/mL (≈ 11.4 µM); MIC [9]: 128 µg/mL (≈ 366 µM); MIC [10]: 64 µg/mL (≈ 183 µM); MIC [11]: 64 µg/mL (≈ 183 µM); MIC [12]: 4 µg/mL (≈ 11.4 µM)
CC[C@H](C)[C@H]1C(=O)N(Cc2ccc(F)c3ccccc23)C[C@@H]2N(C(=O)NCCCC(F)(F)F)CCC(=O)N12 | 6.00 | 0.5 µg/mL (≈ 0.932 µM) | 
CC[C@H](C)[C@H]1C(=O)N(Cc2cccc3ccccc23)C[C@@H]2N(C(=O)NCC(C)(C)C)CCC(=O)N12 | 5.31 | 32 µg/mL (≈ 66.9 µM) | 
C=CC[C@H]1C(=O)N(Cc2cccc3ccccc23)C[C@@H]2N(C(=O)NCCCC(F)(F)F)CCC(=O)N21 | 5.85 | 4 µg/mL (≈ 7.96 µM) | 
CC[C@H](C)[C@H]1C(=O)N(Cc2cccc3ccccc23)C[C@@H]2N(C(=O)NCCC(C)=O)CCC(=O)N12 | 4.58 | > 128 µg/mL | 
CC[C@H](C)[C@H]1C(=O)N(Cc2cccc3ccccc23)C[C@@H]2N(C(=O)NCCCC(F)(F)F)CCC(=O)N12 | 6.14 | 1 µg/mL (≈ 1.93 µM) | 
O=C1[C@H](CC2CC2)N2C(=O)CCN(C(=O)NCCCC(F)(F)F)[C@H]2CN1Cc1cccc2ccccc12 | 5.46 | 4 µg/mL (≈ 7.74 µM) | 
[N-]=[N+]=NCCC[C@H]1C(=O)N(Cc2cccc3ccccc23)C[C@@H]2N(C(=O)NCCCC(F)(F)F)CCC(=O)N21 | 5.82 | 2 µg/mL (≈ 3.67 µM) | 
CN[C@@H]1[C@@H](O)[C@@H](O[C@@H]2[C@@H](O)[C@H](O[C@H]3O[C@H](CN)CC[C@H]3N)[C@@H](N)C[C@H]2N)OC[C@]1(C)O [GENTAMICIN C1A] |  | 0.5 µg/mL (≈ 1.11 µM) | MIC [3]: 128 µg/mL (≈ 285 µM); MIC [4]: 0.5 µg/mL (≈ 1.11 µM); MIC [5]: > 128 µg/mL; MIC [6]: > 128 µg/mL; MIC [7]: 1 µg/mL (≈ 2.22 µM); MIC [8]: 0.25 µg/mL (≈ 0.556 µM); MIC [9]: > 128 µg/mL; MIC [10]: 128 µg/mL (≈ 285 µM); MIC [11]: 64 µg/mL (≈ 142 µM); MIC [12]: 0.5 µg/mL (≈ 1.11 µM)
C#CC[C@H]1C(=O)N(Cc2cccc3ccccc23)C[C@@H]2N(C(=O)NCCCC(F)(F)F)CCC(=O)N21 | 5.72 | 4 µg/mL (≈ 7.99 µM) | 
CC(C)[C@H]1C(=O)N(Cc2cccc3ccccc23)C[C@@H]2N(C(=O)NCCCC(F)(F)F)CCC(=O)N12 | 5.80 | 2 µg/mL (≈ 3.96 µM) | 
O=C1[C@H](CO)N2C(=O)CCN(C(=O)NCc3ccccc3)[C@H]2CN1Cc1cccc2ccccc12 | 5.35 | 64 µg/mL (≈ 135 µM) | 
CC[C@@H](C)[C@H]1C(=O)N(Cc2cccc3ccccc23)C[C@@H]2N(C(=O)NCc3ccc(Br)cc3)CCC(=O)N12 | 5.92 | 4 µg/mL (≈ 6.93 µM) | 
CC[C@H](C)[C@H]1C(=O)N(Cc2cccc3ccccc23)C[C@@H]2N(C(=O)NCCC(C)C)CCC(=O)N12 | 5.72 | 2 µg/mL (≈ 4.18 µM) | 
